Test results reported in patent US20240269238A1, “Therapeutic Regimens and Methods for Reducing Body Weight in a Subject with Fatty Liver Disease using a GLP-1R and GCGR Agonist” (Spitfire Pharma LLC, priority 2022, published 2024).
“Also recorded” adds a separate entry of the source.

Columns and labels:
[1] = Phase 1 12-week study in overweight/obese subjects (NCT0456124, Example 2): key pharmacodynamic endpoints; format: in vivo, human
Procedure: To test the lipid-lowering effects of pemvidutide, an analysis of Phase I clinical trial (NCT0456124) data was carried out. The subjects with overweight/obesity (BMI 25-40 kg/m^2) were randomized at 1 site in Australia (NCT0456124). Subjects were randomized 4:1 pemvidutide:placebo, with placebos pooled. […] Lipoprotein and glycoprotein profiling covering 33 lipoprotein related parameters was performed by ^1H-NMR on fasting plasma samples obtained at Day −1 (baseline), Day 43, and Day 84 from the 34 subjects who completed NCT0456124. Lipidomic profiling covering 600 lipid species was performed by ultra-high performance liquid chromatography-mass spectrometry on fasting plasma samples obtained at Day −1 (baseline), Day 43, and Day 84 from the 34 subjects who completed NCT0456124. For the lipid profiling, plasma fractionation was performed either using methanol to extract fatty acyls, bile acids, steroids, and lyso-glycerophospholipids, or using a chloroform/methanol mix to extract glycerolipids, cholesteryl esters, sphingolipids, and glycerophospholipids. Lipid classification followed the classification system proposed by Fahy et al. (J. Lipid Res. 2005; 46:839-861) and the LIPID MAPS initiative (http://www.lipidmaps.org) (see FIG. 8).

[2] = molecular target: glucagon receptor (GCGR) (Homo sapiens, UniProt P47871); test: cellular assay, agonist activity at GCGR; format: cell-based
glucagon receptor (GCGR), sequence (P47871 26-477): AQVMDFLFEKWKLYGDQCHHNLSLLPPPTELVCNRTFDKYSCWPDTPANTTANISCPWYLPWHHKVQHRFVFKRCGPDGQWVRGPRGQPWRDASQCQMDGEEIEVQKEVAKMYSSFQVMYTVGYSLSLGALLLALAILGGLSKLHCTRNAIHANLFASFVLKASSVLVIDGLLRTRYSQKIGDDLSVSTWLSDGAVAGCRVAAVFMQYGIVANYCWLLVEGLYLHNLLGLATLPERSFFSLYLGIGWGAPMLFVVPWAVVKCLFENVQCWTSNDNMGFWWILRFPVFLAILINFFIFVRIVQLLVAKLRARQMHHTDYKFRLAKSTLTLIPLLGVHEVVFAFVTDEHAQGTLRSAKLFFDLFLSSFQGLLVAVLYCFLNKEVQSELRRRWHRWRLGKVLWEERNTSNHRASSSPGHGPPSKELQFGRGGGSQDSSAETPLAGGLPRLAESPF
Text: (§1) This disclosure relates to a dual agonist peptide(s) as well as pharmaceutical dosage formulations comprising, and methods for using, the same. The dual agonist peptides have affinity for, and in preferred embodiments about equal affinity for, glucagon-like peptide 1 receptor (GLP-1R) and glucagon receptor (GCGR), as may be determined using a cellular assay. In some embodiments, this disclosure provides pharmaceutical dosage formulations configured to induce weight loss in a human being with fatty liver disease. In some embodiments, the human being may, or may not, suffer from type 2 diabetes. In some embodiments, the disclosure provides pharmaceutical dosage formulations configured to reduce pathogenic plasma lipid mediators. As used herein, “pathogenic” serum lipid mediators, included but are not limited to the following reactive lipid species: malondialdehyde (MDA), isolevuglandins (IsoLG), methyglyoxal (MGO), 4-oxononenal (ONE), and 4-hydroxynonenal (HNE). Oxidized phospholipids include 1-palmitoyl-2-oxovaleroyl-sn-glycero-3-phosphorylcholine (POVPC), 1-O-alkyl-2-azelaoyl-sn-glycero-3-phophorylcholine (azPAF), 1-(Palmitoyl)-2-(5-keto-6-octene-dioyl) phosphatidylcholine (KOdiA-PC), 1-palmitoyl-2-F2-isoprostane-sn-glycero-3-phosphocholine (F2IsoP-PC), and 1-palmitoyl-2-(5,6)-epoxyisoprostane E2-sn-glycero-3-phosphocholine (PEIPC). […]

[3] = Phase 1 study NCT0456124 (Example 2): safety and tolerability; format: in vivo, human; details: 12 weeks
[4] = molecular target: glucagon-like peptide 1 receptor (GLP-1R) (Homo sapiens, UniProt P43220); test: cellular assay, agonist activity at GLP-1R; format: cell-based
glucagon-like peptide 1 receptor (GLP-1R), sequence (P43220 24-463): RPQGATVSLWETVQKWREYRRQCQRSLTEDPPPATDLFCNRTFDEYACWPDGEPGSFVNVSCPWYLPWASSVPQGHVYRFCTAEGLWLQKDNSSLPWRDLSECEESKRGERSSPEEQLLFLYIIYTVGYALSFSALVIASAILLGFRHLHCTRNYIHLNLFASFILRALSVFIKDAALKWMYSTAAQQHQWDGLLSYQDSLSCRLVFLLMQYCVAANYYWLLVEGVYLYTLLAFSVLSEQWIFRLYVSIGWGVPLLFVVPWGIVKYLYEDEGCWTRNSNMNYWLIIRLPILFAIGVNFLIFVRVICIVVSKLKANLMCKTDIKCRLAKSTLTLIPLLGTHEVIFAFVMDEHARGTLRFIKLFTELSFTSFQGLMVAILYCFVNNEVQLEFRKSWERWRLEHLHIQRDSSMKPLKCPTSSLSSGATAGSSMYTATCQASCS
Text: as §1

SMILES: CC[C@H](C)[C@H](NC(=O)[C@H](Cc1ccccc1)NC(=O)[C@H](CCC(=O)O)NC(=O)[C@@H]1CCCCNC(=O)CC[C@H](NC(=O)[C@H](CC(=O)O)NC(=O)[C@H](CC(C)C)NC(=O)[C@H](Cc2ccc(O)cc2)NC(=O)[C@H](CCCCN)NC(=O)[C@H](CO)NC(=O)[C@H](Cc2ccc(O)cc2)NC(=O)[C@H](CC(=O)O)NC(=O)[C@H](CO)NC(=O)[C@@H](NC(=O)[C@H](Cc2ccccc2)NC(=O)[C@@H](NC(=O)CNC(=O)[C@H](CCC(N)=O)NC(=O)C(C)(C)NC(=O)[C@@H](N)Cc2c[nH]cn2)[C@@H](C)O)[C@H](C)O)C(=O)N[C@@H](CCCCNC(=O)C2O[C@@H](OCCCCCCCCCCCCCCCCCC(=O)O)C(O)C(O)[C@@H]2O)C(=O)N[C@@H](C)C(=O)N[C@@H](C)C(=O)N1)C(=O)N[C@@H](CCC(N)=O)C(=O)N[C@@H](Cc1c[nH]c2ccccc12)C(=O)N[C@@H](CC(C)C)C(=O)N[C@@H](CC(C)C)C(=O)N[C@@H](CCC(N)=O)C(=O)N[C@H](C(N)=O)[C@@H](C)O (stereo partly drawn) [ALT-801, Pemvidutide]
- Apoprotein B, change from baseline, mean ([1]; 1.2 mg weekly, 12 weeks): −45.4%
- BMI, change from baseline, mean ([1]; 1.2 mg weekly, 12 weeks): −4.8%
- Diastolic BP, change from baseline, mean ([1]; 1.2 mg weekly, 12 weeks): −4.7%
- HDL cholesterol, change from baseline, mean ([1]; 1.2 mg weekly, 12 weeks): −16.7%
- LDL cholesterol, change from baseline, mean ([1]; 1.2 mg weekly, 12 weeks): −18.4%
- Systolic BP, change from baseline, mean ([1]; 1.2 mg weekly, 12 weeks): −10.2%
- Total cholesterol, change from baseline, mean ([1]; 1.2 mg weekly, 12 weeks): −20.0%
- Triglycerides, change from baseline, mean ([1]; 1.2 mg weekly, 12 weeks): −37.0%
- Weight loss, change from baseline, mean ([1]; 1.2 mg weekly, 12 weeks (n = 7)): −4.9%
- mean body weight loss, placebo adjusted ([1]; 1.8 mg dose level, 12 weeks): 8.7%
- mean body weight loss ([1]; 1.8 mg dose level, 12 weeks of weekly treatment): 10.3%
- subjects achieving at least 10% body weight loss ([1]; 1.8 mg group, week 12): over half
- subjects losing at least 5% of body weight ([1]; 1.8 mg group, week 12): all subjects lost at least 5% of their body weight
- Apoprotein B, change from baseline, mean ([1]; 1.8 mg weekly, 12 weeks): −23.4%
- BMI, change from baseline, mean ([1]; 1.8 mg weekly, 12 weeks): −10.4%
- Diastolic BP, change from baseline, mean ([1]; 1.8 mg weekly, 12 weeks): −7.1%
- HDL cholesterol, change from baseline, mean ([1]; 1.8 mg weekly, 12 weeks): −30.3%
- LDL cholesterol, change from baseline, mean ([1]; 1.8 mg weekly, 12 weeks): −25.6%
- Systolic BP, change from baseline, mean ([1]; 1.8 mg weekly, 12 weeks): −12.5%
- Total cholesterol, change from baseline, mean ([1]; 1.8 mg weekly, 12 weeks): −28.0%
- Triglycerides, change from baseline, mean ([1]; 1.8 mg weekly, 12 weeks): −37.9%
- Weight loss, change from baseline, mean ([1]; 1.8 mg weekly, 12 weeks (n = 9)): −10.3%
- Apoprotein B, change from baseline, mean ([1]; 2.4 mg weekly, 12 weeks): −16.8%
- BMI, change from baseline, mean ([1]; 2.4 mg weekly, 12 weeks): −7.0%
- Diastolic BP, change from baseline, mean ([1]; 2.4 mg weekly, 12 weeks): −6.0%
- HDL cholesterol, change from baseline, mean ([1]; 2.4 mg weekly, 12 weeks): −36.0%
- LDL cholesterol, change from baseline, mean ([1]; 2.4 mg weekly, 12 weeks): −23.9%
- Systolic BP, change from baseline, mean ([1]; 2.4 mg weekly, 12 weeks): −17.4%
- Total cholesterol, change from baseline, mean ([1]; 2.4 mg weekly, 12 weeks): −27.7%
- Triglycerides, change from baseline, mean ([1]; 2.4 mg weekly, 12 weeks): −29.2%
- Weight loss, change from baseline, mean ([1]; 2.4 mg weekly, 12 weeks (n = 11)): −9.0%
- EC50 [2]: ~0.04 nM
- tolerability ([3]; 1.2, 1.8, 2.4 mg weekly, no dose titration): well-tolerated at all dose levels; also recorded: safe and well-tolerated
- SAEs or AEs leading to treatment discontinuation [3]: no SAEs or AEs leading to treatment discontinuation were reported
- severity of AEs [3]: mild or moderate severity
- EC50 [4]: ~0.04 nM
